Like-named read-outs stand apart in the source and are kept apart here.
Columns and labels:
Type in all cases: physicochemical
[1] = solubility of the compound of formula (I) in media and formulations
[2] = chemical stability of formulations: impurity content by HPLC over time; conditions: versus PS80 and PS80/ethanol formulations; especially 25° C./60% RH and 30° C./65% RH
Protocol: A study of chemical stability by measuring the impurity content by high performance liquid chromatography (HPLC) was carried out on the formulations making it possible to achieve the target solubility.

[3] = physical stability of the perfusion solution (no visible precipitation); conditions: perfusion solution from compound of formula (I) in PEG alone

- solubility ([1]; medium: PEG 400): 9.5 mg/g
- solubility ([1]; medium: ethanol): 3.8 mg/g
- solubility ([1]; medium: propylene glycol): 1 mg/g
- solubility ([1]; medium: tert-butanol): 1.2 mg/g
- solubility ([1]; medium: water): <0.006 mg/g
- solubility ([1]; organic solvent or mixture, dilution in PEG alone, read-out: solubility): ≤ 7000 µg/mL
- chemical stability compared between formulations [2]: degrades less rapidly
- physical stability of the perfusion solution [3]: < 24 h
Structure (SMILES): CC(C)(C)NC(=O)Nc1nc2nc(Nc3ccc4nsnc4c3)ncc2cc1-c1c(Cl)cccc1Cl [compound of formula (I)]

From patent US20120202831A1, “Pharmaceutical Formulation” (SANOFI, priority 2009, published 2012)
